Test results published in patent US5387602A, “1.5-diphenyl-3-(N-hydroxycarbamoyloxyalkyl)pyrazoles” (Ortho Pharmaceutical Corporation, priority 1993, dated 1995).

target: T1, RBL-1 Cell Cyclooxygenase (Rattus norvegicus, UniProt Q63921); test: Procedure II: cyclooxygenase inhibition in disrupted RBL-1 cells (supernatant as enzyme source); format: biochemical; conditions: not given
T1 construct: the supernatant was saved as the source of enzymes; endogenous in cells; host or cells: RBL-1 (rat basophilic leukemia cells), 10,000×g supernatant of homogenate
T1 sequence (Q63921 27-602): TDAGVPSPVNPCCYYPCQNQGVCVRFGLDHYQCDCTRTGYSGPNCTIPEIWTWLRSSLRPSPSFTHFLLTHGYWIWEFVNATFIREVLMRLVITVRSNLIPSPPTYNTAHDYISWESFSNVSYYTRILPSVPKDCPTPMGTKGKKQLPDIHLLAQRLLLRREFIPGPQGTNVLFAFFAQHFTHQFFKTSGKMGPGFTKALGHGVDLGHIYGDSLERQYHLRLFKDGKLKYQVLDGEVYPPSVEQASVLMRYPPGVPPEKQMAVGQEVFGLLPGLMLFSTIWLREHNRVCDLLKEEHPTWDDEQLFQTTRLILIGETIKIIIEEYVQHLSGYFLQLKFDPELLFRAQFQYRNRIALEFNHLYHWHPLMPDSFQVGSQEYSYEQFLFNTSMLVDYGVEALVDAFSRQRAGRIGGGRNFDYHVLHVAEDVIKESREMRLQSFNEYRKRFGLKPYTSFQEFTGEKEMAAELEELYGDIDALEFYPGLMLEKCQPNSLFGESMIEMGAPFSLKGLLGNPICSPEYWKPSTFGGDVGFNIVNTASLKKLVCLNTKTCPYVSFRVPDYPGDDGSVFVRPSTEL
Protocol: RBL-1 Cell 5-Lipoxygenase and Cyclooxygenase
Rat basophilic leukemia cells (RBL-1; 5×10^7 viable cells/mL) were disrupted by homogenization on ice (four 20 sec bursts) with a Brinkman polytron. Complete cell breakage was verified microscopically. The homogenate was then centrifuged at 10,000×g for 48 minutes at 4° C. The pellet was discarded and the supernatant was saved as the source of enzymes. The supernatant was pre-incubated for five minutes at 37° C. in the presence of 2 mM of CaCl2 and compound or vehicle (1% DMSO). The conversion of AA into 5-LO products was initiated by adding 10 μL (50 μCi) of 1-^14 C-AA to each tube and incubated at 37° C. for 20 minutes. The reaction was stopped by adjusting the pH of each sample to 3 to 3.5 with 2M formic acid. Samples were extracted with three volumes of chloroform to isolate the products of 5-LO formed during the reaction. Fractions were dried under nitrogen, then resuspended in 40 μL of chloroform and spotted onto silica gel HL plates. The plates were developed in A-9 solvent. The dried plates were analyzed using a Bioscan Imaging TLC scanner to determine the percentage of radiolabelled AA converted to 5-HETE in each sample.
In the following tables, the superscripts indicate the number of experiments and, unless otherwise stated, the dose at which % inhibition is reported is 3 MPK.

Compound	% INHIBITION CO (Procedure II)
COc1ccc(-n2nc(CCCOC(=O)N(C)O)cc2-c2ccc(Cl)cc2)cc1 [3-B]	65%
COc1ccc(-n2nc(CCCOC(=O)N(O)C(C)C)c(Cl)c2-c2ccc(Cl)cc2)cc1 [3-E]	52%
COc1ccc(-n2nc(CCCOC(=O)N(C)O)c(Br)c2-c2ccc(Cl)cc2)cc1 [3-F]	100%

Next, values leading:

% INHIBITION CO (Procedure II)	Compound
0%	COc1ccc(-n2nc(CCCOC(=O)N(O)C(C)C)c(Br)c2-c2ccc(Cl)cc2)cc1 [3-G]
67%	COc1ccc(-n2nc(CCCOC(=O)NO)cc2-c2ccc(Cl)cc2)cc1 [3-A]
100%	COc1ccc(-n2nc(CCCOC(=O)N(C)O)c(Cl)c2-c2ccc(Cl)cc2)cc1 [3-D]
72%	COc1ccc(-n2nc(CCCOC(=O)N(O)C(C)C)cc2-c2ccc(Cl)cc2)cc1 [3-C]

same assay, conditions: read-out: IC50 CO (Procedure II)

Compound	IC50
COc1ccc(-n2nc(CCCOC(=O)N(C)O)cc2-c2ccc(Cl)cc2)cc1 [3-B]	6.34 µM
COc1ccc(-n2nc(CCCOC(=O)N(O)C(C)C)c(Cl)c2-c2ccc(Cl)cc2)cc1 [3-E]	17 µM
COc1ccc(-n2nc(CCCOC(=O)N(C)O)c(Br)c2-c2ccc(Cl)cc2)cc1 [3-F]	6.11 µM

Compounds with a lower IC50, results first:

IC50	Compound
3.17 µM	COc1ccc(-n2nc(CCCOC(=O)N(O)C(C)C)c(Br)c2-c2ccc(Cl)cc2)cc1 [3-G]
3 µM	COc1ccc(-n2nc(CCCOC(=O)NO)cc2-c2ccc(Cl)cc2)cc1 [3-A]
2.25 µM	COc1ccc(-n2nc(CCCOC(=O)N(C)O)c(Cl)c2-c2ccc(Cl)cc2)cc1 [3-D]
1.78 µM	COc1ccc(-n2nc(CCCOC(=O)N(O)C(C)C)cc2-c2ccc(Cl)cc2)cc1 [3-C]

target: T2, Sheep Seminal Vesicle Cyclooxygenase (Ovis aries, UniProt P05979); test: Procedure I: sheep seminal vesicle (SSV) cyclooxygenase inhibition; format: biochemical; conditions: SSV CO
T2 construct: purchased Biomol (Plymouth Meeting, Pa.); host or cells: sheep seminal vesicle
T2 sequence (P05979 25-600): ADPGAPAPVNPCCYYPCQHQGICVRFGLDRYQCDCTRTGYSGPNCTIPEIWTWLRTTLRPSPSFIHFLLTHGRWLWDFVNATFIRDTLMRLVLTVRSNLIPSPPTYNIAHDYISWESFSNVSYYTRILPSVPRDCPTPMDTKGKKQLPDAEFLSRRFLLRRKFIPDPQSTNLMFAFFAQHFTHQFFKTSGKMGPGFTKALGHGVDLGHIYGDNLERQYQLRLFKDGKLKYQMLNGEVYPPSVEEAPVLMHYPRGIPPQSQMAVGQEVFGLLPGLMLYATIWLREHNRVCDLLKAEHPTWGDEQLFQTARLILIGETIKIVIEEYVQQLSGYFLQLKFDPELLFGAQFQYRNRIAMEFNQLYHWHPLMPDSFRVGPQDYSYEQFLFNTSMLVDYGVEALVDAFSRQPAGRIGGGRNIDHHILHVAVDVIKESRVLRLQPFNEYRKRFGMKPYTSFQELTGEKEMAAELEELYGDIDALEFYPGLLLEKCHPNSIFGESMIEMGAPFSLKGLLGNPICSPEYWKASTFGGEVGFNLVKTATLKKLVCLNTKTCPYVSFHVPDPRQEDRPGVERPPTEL
Protocol: Sheep Seminal Vesicle Cyclooxygenase Sheep seminal vesicle (SSV) cyclooxygenase (95% pure, prostaglandin endoperoxide synthase, EC 1.14.99.1 specific activity 24 units/mg protein) obtained as a lyophilized powder from Biomol (Plymouth Meeting, Pa.) was reconstituted at a concentration of 59 mg/mL in Hanks' Balanced Salt Solution (HBSS). The enzyme was divided into 200 μL aliquots, snap frozen with liquid N2, and stored at -70° C. until immediately prior to use. Measurements of CO activity were carried out in polypropylene tubes containing 495 μL of HBSS to which was added 5 μL Of inhibitor or dimethylsulfoxide (DMSO; vehicle control) and 6 μL of SSV CO solution. The tubes were mixed on a vortex shaker, preincubated for 5 min at 37° C. prior to the initiation of the reaction. The reaction was started by the addition of [^14 C]-arachidonic acid (1-^14 C-AA, Amersham, Arlington Heights, Ill.) in 10 μL of methanol. Tubes were again vortexed and incubated in a water bath for 20 minutes after which the tubes were removed and the reaction stopped by acidification with the addition of 1 mL 2M formic acid. Lipophilic products were extracted with 3 mL chloroform and concentrated to dryness under N2. Each pellet was reconstituted with 40 μL of chloroform and spotted on a Whatman Silicon thin-layer chromatography plate and developed in a chromatography tank containing A-9 solvent (11:5:2:1 V:V:V:V, ethyl acetate:trimethyl-pentane:acetic acid:double distilled-H2 O). Radioactive cyclooxygenase products (prostaglandin D2, prostaglandin E2, etc.) were measured using a Bioscan System 200 Imaging Scanner. Inhibition of enzyme activity was calculated by comparing the areas under the curve produced in the presence or absence of test compound. In the following tables, the superscripts indicate the number of experiments and, unless otherwise stated, the dose at which % inhibition is reported is 3 MPK.

Compound	IC50
COc1ccc(-n2nc(CCCOC(=O)N(O)C(C)C)c(Cl)c2-c2ccc(Cl)cc2)cc1 [3-E]	5.8 µM
COc1ccc(-n2nc(CCCOC(=O)N(C)O)c(Br)c2-c2ccc(Cl)cc2)cc1 [3-F]	2.29 µM

Other lines, results leading:

IC50	Compound
14.1 µM	COc1ccc(-n2nc(CCCOC(=O)N(O)C(C)C)c(Br)c2-c2ccc(Cl)cc2)cc1 [3-G]
4 µM	COc1ccc(-n2nc(CCCOC(=O)NO)cc2-c2ccc(Cl)cc2)cc1 [3-A]
2.55 µM	COc1ccc(-n2nc(CCCOC(=O)N(C)O)c(Cl)c2-c2ccc(Cl)cc2)cc1 [3-D]
1.4 µM	COc1ccc(-n2nc(CCCOC(=O)N(O)C(C)C)cc2-c2ccc(Cl)cc2)cc1 [3-C]

same assay, conditions: dose 3 MPK unless otherwise stated (so in the source)

Compound	% INHIB. CO (Procedure I)
COc1ccc(-n2nc(CCCOC(=O)N(C)O)cc2-c2ccc(Cl)cc2)cc1 [3-B]	74%
COc1ccc(-n2nc(CCCOC(=O)N(O)C(C)C)c(Cl)c2-c2ccc(Cl)cc2)cc1 [3-E]	26%
COc1ccc(-n2nc(CCCOC(=O)N(C)O)c(Br)c2-c2ccc(Cl)cc2)cc1 [3-F]	78%

The remaining lines, values ahead:

% INHIB. CO (Procedure I)	Compound
0%	COc1ccc(-n2nc(CCCOC(=O)N(O)C(C)C)c(Br)c2-c2ccc(Cl)cc2)cc1 [3-G]
40%	COc1ccc(-n2nc(CCCOC(=O)NO)cc2-c2ccc(Cl)cc2)cc1 [3-A]
68%	COc1ccc(-n2nc(CCCOC(=O)N(C)O)c(Cl)c2-c2ccc(Cl)cc2)cc1 [3-D]
53%	COc1ccc(-n2nc(CCCOC(=O)N(O)C(C)C)cc2-c2ccc(Cl)cc2)cc1 [3-C]
